Assay results from US20080103205A1, “Pesticidal compositions and methods of use” (priority 2006, published 2008).

Legend:
[1] = test system: Meloidogyne incognita eggs; experiment: M. incognita egg hatching; format: in vivo
Experimental: Meloidogyne incognita (plant parasitic nematode) eggs were collected from tomato plant roots and were suspended in water. The solution was either diluted or concentrated to adjust the egg load to about 5000/ml. AT stock solutions prepared in DMSO and 300 ul of test solution was placed in a well, along with 20 ul of aqueous solution containing eggs. The number of eggs in 20 ul solution ranged from 115 to 143 (n=10). Each treatment (2, 5, 10, 20, or 40 ppm) was replicated 5 times. Microplates were sealed with Parafilm™ and incubated at room temperature. Similar tests conducted with 0.2% DMSO alone served as controls. Egg hatching was monitored at 24, 72, 120, and 168 hr after incubation. Both moving and non-moving nematodes were counted to arrive at the number of eggs hatched. Proportion of egg hatch was calculated as the number of juveniles divided by total number of eggs.
VSCC blockers effect on M. incognita egg hatching is shown in the following tables where % hatched is rounded to the nearest percentage point and where “% C*” is % hatch, normalized to control.

[2] = test system: European corn borer (Ostrinia nubilalis); experiment: Diet surface test on European corn borer larvae (2nd instar); format: in vivo
Experimental: Concentrations of 6.25, 12.5, 25, or 50 ppm AT blocker were prepared in 95% ethyl alcohol (EtOH). 95% EtOH alone served as control. European corn borer (ECB) diet prepared from the powdered diet supplied by French Agricultural Research, Inc. Diet (1-2 ml) was poured into small cups and allowed to cool to room temperature. Test solution (100 ul) was placed onto the diet surface and allowed to evaporate the solvent. Each concentration of chemical had 2 sets of 10 cups each. One late 2nd instar larva was placed in each cup and covered with lid having perforations for aeration. Cups were placed in an incubator for 7 days at 25±1° C. and 70±5% RH. After seven days, the weight of each larva was taken and any mortality was recorded. Then, the surviving larvae were transferred to fresh diet cups holding sufficient diet (5-6 ml) without chemicals and incubated at 25±1° C. and 70±5% RH until pupation. Weights of larvae were taken 14 days after transferring to fresh diet (21 days after start of treatment). Finally, the number of days until pupation was recorded.
Anion transporters caused larval death and a reduction in weight gain within 7 days exposure. The effect persisted for 2 weeks time on untreated diet, but total time to pupation was relatively unaffected.

[3] = 6.25 ppm, 7 days after feeding, 10 larvae treated
[4] = 6.25 ppm, 21 days after feeding
[5] = 6.25 ppm, 21 days after feeding, 10 larvae treated
[6] = 12.5 ppm, 7 days after feeding, 10 larvae treated
[7] = 12.5 ppm, 21 days after feeding
[8] = 12.5 ppm, 21 days after feeding, 10 larvae treated
[9] = 25 ppm, 7 days after feeding, 10 larvae treated
[10] = 25 ppm, 21 days after feeding, 10 larvae treated
[11] = 50 ppm, 7 days after feeding, 10 larvae treated

CC1(C2CCCC2)Cc2cc(OCC(=O)O)c(Cl)c(Cl)c2C1=O (single isomer, unassigned; (+)) [IAA-94, (+)(2-cyclopentyl-6,7-dichloro-2-methyl-1-oxo-5-indanyloxy) acetic acid]
Eggs Hatched % ([1]; 2 ppm, 24 hr): 10% | Eggs Hatched % C* (% hatch, normalized to control) ([1]; 2 ppm, 24 hr): 100% | Eggs Hatched No. ([1]; 2 ppm, 24 hr): 70 | Eggs Hatched % ([1]; 2 ppm, 72 hr): 15% | Eggs Hatched % C* (% hatch, normalized to control) ([1]; 2 ppm, 72 hr): 94% | Eggs Hatched No. ([1]; 2 ppm, 72 hr): 97 | Eggs Hatched % ([1]; 2 ppm, 120 hr): 19% | Eggs Hatched % C* (% hatch, normalized to control) ([1]; 2 ppm, 120 hr): 86% | Eggs Hatched No. ([1]; 2 ppm, 120 hr): 130 | Eggs Hatched % ([1]; 2 ppm, 168 hr): 24% | Eggs Hatched % C* (% hatch, normalized to control) ([1]; 2 ppm, 168 hr): 86% | Eggs Hatched No. ([1]; 2 ppm, 168 hr): 161 | Eggs Hatched % ([1]; 5 ppm, 24 hr): 10% | Eggs Hatched % C* (% hatch, normalized to control) ([1]; 5 ppm, 24 hr): 100% | Eggs Hatched No. ([1]; 5 ppm, 24 hr): 66 | Eggs Hatched % ([1]; 5 ppm, 72 hr): 13% | Eggs Hatched % C* (% hatch, normalized to control) ([1]; 5 ppm, 72 hr): 81% | Eggs Hatched No. ([1]; 5 ppm, 72 hr): 96 | Eggs Hatched % ([1]; 5 ppm, 120 hr): 19% | Eggs Hatched % C* (% hatch, normalized to control) ([1]; 5 ppm, 120 hr): 86% | Eggs Hatched No. ([1]; 5 ppm, 120 hr): 128 | Eggs Hatched % ([1]; 5 ppm, 168 hr): 22% | Eggs Hatched % C* (% hatch, normalized to control) ([1]; 5 ppm, 168 hr): 79% | Eggs Hatched No. ([1]; 5 ppm, 168 hr): 161 | Eggs Hatched % ([1]; 10 ppm, 24 hr): 9% | Eggs Hatched % C* (% hatch, normalized to control) ([1]; 10 ppm, 24 hr): 90% | Eggs Hatched No. ([1]; 10 ppm, 24 hr): 64 | Eggs Hatched % ([1]; 10 ppm, 72 hr): 13% | Eggs Hatched % C* (% hatch, normalized to control) ([1]; 10 ppm, 72 hr): 81% | Eggs Hatched No. ([1]; 10 ppm, 72 hr): 88 | Eggs Hatched % ([1]; 10 ppm, 120 hr): 18% | Eggs Hatched % C* (% hatch, normalized to control) ([1]; 10 ppm, 120 hr): 82% | Eggs Hatched No. ([1]; 10 ppm, 120 hr): 112 | Eggs Hatched % ([1]; 10 ppm, 168 hr): 20% | Eggs Hatched % C* (% hatch, normalized to control) ([1]; 10 ppm, 168 hr): 71% | Eggs Hatched No. ([1]; 10 ppm, 168 hr): 134 | Eggs Hatched % ([1]; 20 ppm, 24 hr): 8% | Eggs Hatched % C* (% hatch, normalized to control) ([1]; 20 ppm, 24 hr): 80% | Eggs Hatched No. ([1]; 20 ppm, 24 hr): 60 | Eggs Hatched % ([1]; 20 ppm, 72 hr): 12% | Eggs Hatched % C* (% hatch, normalized to control) ([1]; 20 ppm, 72 hr): 75% | Eggs Hatched No. ([1]; 20 ppm, 72 hr): 82 | Eggs Hatched % ([1]; 20 ppm, 120 hr): 15% | Eggs Hatched % C* (% hatch, normalized to control) ([1]; 20 ppm, 120 hr): 68% | Eggs Hatched No. ([1]; 20 ppm, 120 hr): 96 | Eggs Hatched % ([1]; 20 ppm, 168 hr): 17% | Eggs Hatched % C* (% hatch, normalized to control) ([1]; 20 ppm, 168 hr): 61% | Eggs Hatched No. ([1]; 20 ppm, 168 hr): 112 | Eggs Hatched % ([1]; 40 ppm, 24 hr): 8% | Eggs Hatched % C* (% hatch, normalized to control) ([1]; 40 ppm, 24 hr): 80% | Eggs Hatched No. ([1]; 40 ppm, 24 hr): 55 | Eggs Hatched % ([1]; 40 ppm, 72 hr): 11% | Eggs Hatched % C* (% hatch, normalized to control) ([1]; 40 ppm, 72 hr): 69% | Eggs Hatched No. ([1]; 40 ppm, 72 hr): 69 | Eggs Hatched % ([1]; 40 ppm, 120 hr): 13% | Eggs Hatched % C* (% hatch, normalized to control) ([1]; 40 ppm, 120 hr): 59% | Eggs Hatched No. ([1]; 40 ppm, 120 hr): 82 | Eggs Hatched % ([1]; 40 ppm, 168 hr): 14% | Eggs Hatched % C* (% hatch, normalized to control) ([1]; 40 ppm, 168 hr): 50% | Eggs Hatched No. ([1]; 40 ppm, 168 hr): 92 | Mean wt of survived larvae ([2]; 6.25 ppm, 7 days after feeding): 45.52 mg | Mean wt of survived larvae, mg ([2]; 6.25 ppm, 7 days after feeding): 44.64 (10) mg | No. dead ([2]; 6.25 ppm, 7 days after feeding, 10 larvae): 0 | # surviving [2, 3]: 10 | No. dead [2, 3]: 0 | Mean wt of survived larvae [2, 4]: 138.56 mg | Mean wt of survived larvae, mg [2, 4]: 150.90 (10) mg | No. dead ([2]; 6.25 ppm, 21 days after feeding, 10 larvae): 0 | # surviving [2, 5]: 10 | No. dead [2, 5]: 0 | Mean wt of survived larvae ([2]; 12.5 ppm, 7 days after feeding): 33.62 mg | Mean wt of survived larvae, mg ([2]; 12.5 ppm, 7 days after feeding): 34.40 (10) mg | No. dead ([2]; 12.5 ppm, 7 days after feeding, 10 larvae): 0 | # surviving [2, 6]: 10 | No. dead [2, 6]: 0 | Mean wt of survived larvae [2, 7]: 108.84 mg | Mean wt of survived larvae, mg [2, 7]: 115.14 (10) mg | No. dead ([2]; 12.5 ppm, 21 days after feeding, 10 larvae): 0 | # surviving [2, 8]: 10 | No. dead [2, 8]: 0 | Mean wt of survived larvae ([2]; 25 ppm, 7 days after feeding): 25.97 mg | Mean wt of survived larvae, mg ([2]; 25 ppm, 7 days after feeding): 23.96 (10) mg | No. dead ([2]; 25 ppm, 7 days after feeding, 10 larvae): 0 | # surviving [2, 9]: 8 | No. dead [2, 9]: 2 | Mean wt of survived larvae ([2]; 25 ppm, 21 days after feeding): 4.85 mg | Mean wt of survived larvae, mg ([2]; 25 ppm, 21 days after feeding): 65.60 (8) mg | No. dead ([2]; 25 ppm, 21 days after feeding, 10 larvae): 2 | # surviving [2, 10]: 8 | No. dead [2, 10]: 2 | Mean wt of survived larvae ([2]; 50 ppm, 7 days after feeding): 11.90 mg | Mean wt of survived larvae, mg ([2]; 50 ppm, 7 days after feeding): 12.93 (6) mg | No. dead ([2]; 50 ppm, 7 days after feeding, 10 larvae): 4 | # surviving [2, 11]: 2 | No. dead [2, 11]: 8 | Mean wt of survived larvae ([2]; 50 ppm, 21 days after feeding): 0 mg | Mean wt of survived larvae, mg ([2]; 50 ppm, 21 days after feeding): 24.0 (2) mg | No. dead ([2]; 50 ppm, 21 days after feeding, 10 larvae): 8 | No. dead ([2]; 50 ppm, 21 days after feeding, 10 larvae treated): 10 | mortality at 6.25 ppm ([2]; Ostrinia nubilalis, 168 h, 6.25 ppm, 7 days after feeding): 0% | mortality at 12.5 ppm ([2]; Ostrinia nubilalis, 168 h, 12.5 ppm, 7 days after feeding): 0% | mortality at 6.25 ppm ([2]; Ostrinia nubilalis, 504 h, 6.25 ppm, 21 days after feeding): 0% | mortality at 12.5 ppm ([2]; Ostrinia nubilalis, 504 h, 12.5 ppm, 21 days after feeding): 0% | mortality at 25 ppm ([2]; Ostrinia nubilalis, 504 h, 25 ppm, 21 days after feeding): 20% | mortality at 50 ppm ([2]; Ostrinia nubilalis, 504 h, 50 ppm, 21 days after feeding): 80%
